Experimental data: US20090215813A1, “HISTONE DEACETYLASE INHIBITORS AS IMMUNOSUPPRESSANTS” (priority 2003, published 2009)

Columns and labels:
[1] = test system: heart graft, strain combination Lewis and BN; test: Rat heart transplantation, graft survival and histology; format: in vivo; conditions: for effect of co-administration: test not named
From the text: Rat Heart Transplantation
The strain combination used is Male Lewis (RT1 haplotype) and BN (RT1 haplotype). The animals are anaesthetized using inhalation isofluorane. […] The aorta is ligated and divided distal to the first branch and the brachiocephalic trunk is divided at the first bifurcation. The left pulmonary artery is ligated and divided and the right side divided but left open. All other vessels are dissected free, ligated and divided and the donor heart is removed into iced saline.
The recipient is prepared by dissection and cross-clamping of the infra-renal abdominal aorta and vena cava. The graft is implanted with end-to-side anastomoses, using 10/0 monofilament suture, between the donor brachiocephalic trunk and the recipient aorta and the donor right pulmonary artery to the recipient vena cava. The clamps are removed, the graft tethered retroabdominally, the abdominal contents washed with warm saline and the animal is closed and allowed to recover under a heating lamp. Animals are treated with saline (control); an HDAI compound e.g. a compound of formula (I), e.g. N-hydroxy-3-[4-[[[2-(2-methyl-1H-indol-3-yl)-ethyl]-amino]methyl]phenyl]-2E-2-propenamide (“compound P1”); 40-O-(2-hydroxyethyl)-rapamycin (“compound P2”) prepared according to the methods described in WO 94/09010; FTY720 (“compound P3”) prepared according to Example 28 of WO 94/08943, or combinations of the each as indicated. Graft survival is monitored by daily palpation of the beating donor heart through the abdominal wall. Rejection is considered to be complete when heart beat stops. At that point the animal is euthanized and the transplanted heart is fixed for histology. […] The scale for grading for acute rejection is 1=slight; 2=moderate; 3=marked; 4=severe.

[2] = test system: Balb/c (H-2d) heart graft in C57BL/6J (H-2b) recipients; test: Acute rejection, heterotopic heart transplantation, graft survival; format: in vivo, mice; conditions: versus saline, across dosing schedules
Procedure: Balb/c (H-2^d) mice are used as donor animals, and e.g. C57BL/6J (H-2^b) mice as recipients. The heart is removed from the donors according to known procedures and stored in cold saline (4° C.). The recipient animals are anaesthetised with isofluorane. […] Blood vessels are dissected free from the fascia for a length of 3-5 mm, ligating and dividing any small branches. Vessels are occluded, first proximally and then distally. An arteriotomy and venotomy is performed, and lumens are flushed with heparinised physiological saline. […] The distal ligature is removed, then the proximal ligature. The suture lines are checked for leakage. Then the graft is tethered retroabdobminally. The abdomen is flooded with warm saline (37° C.) and the wound is closed. Graft function is monitored daily by palpation of the abdomen. Rejection is concluded when the graft stops beating. Animals are treated with a 100 μL subcutaneous injection of saline or a solution of a HDAI, e.g. the compound of formula (I), e.g. N-hydroxy-3-[4-[[[2-(2-methyl-1H-indol-3-yl)-ethyl]-amino]methyl]phenyl]-2E-2-propenamide in lactate buffer pH 5.5 according to the dosing schedule shown in Table 1 below: […]

[3] = test system: spleen cells from CBA and BALB/c mice; test: Allogeneic two-way mixed lymphocyte reaction (MLR); format: cell-based; conditions: two-way mouse MLR, 3H-thymidine incorporation after four days, read-out: IC50 value (concentration required for 50% inhibition of proliferation)
Procedure: Cellular Assay: Allogeneic Mixed Lymphocyte Reaction (MLR)
The two-way MLR is performed according to standard procedures (J. Immunol. Methods, 1973, 2, 279 and Meo T. et al., Immunological Methods, New York, Academic Press, 1979, 227-39). Briefly, spleen cells from CBA and BALB/c mice (1.6×10^5 cells from each strain per well in flat bottom tissue culture microtiter plates, 3.2×10^5 in total) are incubated in RPMI medium containing 10% FCS, 100 U/ml penicillin, 100 μg/ml streptomycin (Gibco BRL, Basel, Switzerland), 50 μM 2-mercaptoethanol (Fluka, Buchs, Switzerland) and serially diluted compounds. Seven three-fold dilution steps in duplicates per test compound are performed. After four days of incubation 1 μCi ^3H-thymidine is added. Cells are harvested after an additional five-hour incubation period, and incorporated ^3H-thymidine is determined according to standard procedures. Background values (low control) of the MLR are the proliferation of BALB/c cells alone. Low controls are subtracted from all values. High controls without any sample are taken as 100% proliferation. Percent inhibition by the samples is calculated, and the concentrations required for 50% inhibition (IC50 values) are determined. In this assay, the agents of the invention have IC50 values in the range of 1 nM to 10 μM, preferably from 1 nM to 500 nM.

CO[C@H]1C[C@@H]2CC[C@@H](C)[C@@](O)(O2)C(=O)C(=O)N2CCCC[C@H]2C(=O)O[C@H]([C@H](C)C[C@@H]2CC[C@@H](OCCO)[C@H](OC)C2)CC(=O)[C@H](C)/C=C(\C)[C@@H](O)[C@@H](OC)C(=O)[C@H](C)C[C@H](C)/C=C/C=C/C=C/1C [Compound P2, 40-O-(2-hydroxyethyl)-rapamycin, reference compound]
Median survival time (MST) ([1]; 0.3 mg/kg/d p.o., rat): 7

CCCCCCCCc1ccc(CCC(N)(CO)CO)cc1 [Compound P3, FTY720, reference compound]
Median survival time (MST) ([1]; 0.1 mg/kg/d p.o., rat): 7.5

Cc1[nH]c2ccccc2c1CCNCc1ccc(/C=C/C(=O)NO)cc1 [Compound P1, N-hydroxy-3-[4-[[[2-(2-methyl-1H-indol-3-yl)-ethyl]-amino]methyl]phenyl]-2E-2-propenamide]
increases graft survival [2]: 2-5 times the number of days | Median survival time (MST) ([1]; 0.3 mg/kg/d s.c., rat): 6 | Median survival time (MST) ([1]; 1.0 mg/kg/d s.c., rat): >28 | Survival (days) for each individual graft ([1]; 1.0 mg/kg/d s.c., rat): >28, >28, >28 days | effect of co-administration ([1]; co-administered with a mTOR inhibitor, e.g. 40-O-(2-hydroxyethyl)-rapamycin): synergistic effect | effect of co-administration ([1]; co-administered with a sphingosine 1-phosphate receptor agonist): synergistic effect | IC50 [3]: 9 nM
